Experimental data taken from patent publication US8785453B2, “Arylpiperazine-containing purine derivatives and uses thereof” (Green Cross Corporation, priority 2009, dated 2014).

Columns and labels:
mice [1] = experiment: Synergy effect of the inventive compound combined with conventional anti-depressants in forced swimming test; type: in vivo; conditions: for anti-immobility effect in FST, anti-depressant alone: 25 mg/kg p.o.
Method: Each drug or vehicle was suspended in 3% Tween 80 solution and administered orally (p.o.) 60 min before forced swimming test.

[2] = target: T1, human recombinant 5-HT2C receptor (Homo sapiens, UniProt P28335); experiment: Binding affinity for serotonin 5-HT2C receptor ([3H]Mesulergine); conditions: CHO-K1 membranes, 1.3 nM [3H]Mesulergine; read-out: binding affinity (IC50) 5-HT2C
T1 construct: purchased PerkinElmer
T1 sequence (P28335 33-458): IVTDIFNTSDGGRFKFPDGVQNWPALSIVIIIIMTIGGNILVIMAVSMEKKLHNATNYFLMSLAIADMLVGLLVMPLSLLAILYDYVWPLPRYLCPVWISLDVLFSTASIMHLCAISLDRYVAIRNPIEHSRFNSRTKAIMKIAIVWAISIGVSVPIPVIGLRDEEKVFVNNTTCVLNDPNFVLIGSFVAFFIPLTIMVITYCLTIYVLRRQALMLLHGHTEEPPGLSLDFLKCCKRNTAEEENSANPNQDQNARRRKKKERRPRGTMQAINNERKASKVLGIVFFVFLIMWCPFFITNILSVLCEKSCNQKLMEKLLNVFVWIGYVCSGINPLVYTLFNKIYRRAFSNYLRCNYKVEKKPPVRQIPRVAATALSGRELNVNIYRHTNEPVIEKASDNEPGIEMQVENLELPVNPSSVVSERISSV
Method: (§1) Receptor binding affinities of the compounds for serotonin receptors were measured by the method described in the literature (see [Park W K et al., Pharmacol Biochem Behav., 82(2), 361-372 (2005)].
(§2) The binding affinity (IC50) of a compound for the receptor was calculated by computerized nonlinear regression analysis (GraphPad Prism Program, San Diego, USA) using 7-8 varied concentrations of the compound run in duplicate tubes.
For serotonin 5-HT2C binding, frozen membranes from stable CHO-K1 cell line expressing the human recombinant 5-HT2C receptor (PerkinElmer, 4 μg/well), [^3H]Mesulergine (Amersham, 1.3 nM) and test compounds were added into 50 mM Tris-HCl (pH 7.4) buffer containing 0.1% ascorbic acid and 4 mM CaCl2. Nonspecific binding was determined using 100 μM mianserin. The incubations were performed for 60 min at 27, and these were terminated by rapid filtration through filtermate A glass fiber filter presoaked in 0.5% PEI.

mice [3] = experiment: Anti-depressants activity in forced swimming test; type: in vivo; conditions: 60 min before testing
Method: Each mouse was placed in a 25 cm glass cylinder (10 cm diameter) containing 15 cm of water maintained at 22±1, and was forced to swim for 10 min. 24 hours later, the mouse was replaced into the cylinder and the total duration of immobility was recorded during the last 5 min of the 6-min testing period. Mice are judged immobile when they float in an upright position and make only small movements to keep their head above water. Test drugs were suspended in 3% Tween 80 solution, and administered orally (po) 60 min before the testing.

[4] = target: T2, human serotonin transporter (Homo sapiens, UniProt P31645); experiment: Binding affinity for serotonin transporter ([3H]Imipramine); conditions: HEK-293 membrane, 2 nM [3H]Imipramine; read-out: binding affinity Serotonin Transporter
T2 construct: purchased PerkinElmer; host or cells: HEK-293 cells
T2 sequence (P31645 whole entry): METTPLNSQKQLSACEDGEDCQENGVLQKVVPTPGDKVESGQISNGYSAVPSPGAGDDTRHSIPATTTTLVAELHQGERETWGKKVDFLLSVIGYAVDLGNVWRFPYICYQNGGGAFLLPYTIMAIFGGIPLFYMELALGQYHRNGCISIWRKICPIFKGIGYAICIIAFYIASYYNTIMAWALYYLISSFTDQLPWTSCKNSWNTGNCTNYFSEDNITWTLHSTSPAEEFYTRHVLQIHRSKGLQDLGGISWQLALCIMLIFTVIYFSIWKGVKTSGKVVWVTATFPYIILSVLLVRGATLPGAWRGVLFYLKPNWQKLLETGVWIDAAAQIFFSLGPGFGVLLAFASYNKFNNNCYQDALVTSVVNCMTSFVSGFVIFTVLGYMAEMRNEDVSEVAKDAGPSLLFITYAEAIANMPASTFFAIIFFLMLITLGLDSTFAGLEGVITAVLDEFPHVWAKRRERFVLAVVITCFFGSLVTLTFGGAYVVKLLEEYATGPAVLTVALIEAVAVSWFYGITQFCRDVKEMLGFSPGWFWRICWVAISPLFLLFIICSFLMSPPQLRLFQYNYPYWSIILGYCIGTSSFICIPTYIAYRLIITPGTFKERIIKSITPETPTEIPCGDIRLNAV
Method: For serotonin transporter binding assays, a reaction mixture with a final volume of 0.25 ml was prepared by mixing a test compound, human serotonin transporter membrane expressed in HEK-293 cells (PerkinElmer, 5 μg/well), [^3H] Imipramine (PerkinElmer, 2 nM) and 50 mM Tris-HCl (pH 7.4) buffer containing 120 mM NaCl and 5 mM KCl. The reaction mixture was incubated for 30 min at 27, and harvested through filtermate A glass fiber filter presoaked in 0.5% PEI with ice cold 50 mM Tris-HCl buffer (pH 7.4) containing 0.9% NaCl.

[5] = target: T3, human recombinant serotonin 5-HT2A receptor (Homo sapiens, UniProt P28223); experiment: Binding affinity for serotonin 5-HT2A receptor ([3H]Ketanserin); conditions: CHO-K1 cells, 1 nM [3H]Ketanserin; read-out: binding affinity (IC50) 5-HT2A
T3 construct: purchased PerkinElmer Life and Analytical Sciences, USA; host or cells: CHO-K1 cells
T3 sequence (P28223 whole entry): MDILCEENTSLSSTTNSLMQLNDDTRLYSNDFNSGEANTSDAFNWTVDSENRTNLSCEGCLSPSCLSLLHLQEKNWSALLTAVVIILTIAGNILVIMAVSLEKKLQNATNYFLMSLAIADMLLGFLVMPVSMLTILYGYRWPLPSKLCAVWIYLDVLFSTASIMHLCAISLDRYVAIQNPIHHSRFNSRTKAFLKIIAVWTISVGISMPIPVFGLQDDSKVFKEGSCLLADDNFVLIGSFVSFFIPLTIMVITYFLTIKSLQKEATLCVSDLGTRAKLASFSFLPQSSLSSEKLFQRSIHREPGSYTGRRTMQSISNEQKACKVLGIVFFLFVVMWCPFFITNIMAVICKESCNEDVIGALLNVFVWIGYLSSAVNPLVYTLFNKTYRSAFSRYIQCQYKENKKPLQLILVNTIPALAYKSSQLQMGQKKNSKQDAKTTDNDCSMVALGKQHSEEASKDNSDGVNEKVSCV
Method: as §1
For serotonin 5-HT2A binding, an aliquot of human recombinant serotonin 5-HT2A receptor (PerkinElmer Life and Analytical Sciences, USA) expressed in CHO-K1 cells (5 μg/well) and 1 nM [^3H]Ketanserin (PerkinElmer) were used in the presence of mianserin (20 μM) as a nonspecific. The reaction mixture was incubated for 60 min […] 50 mM Tris-HCl (pH 7.4) buffer containing 4 mM CaCl2 and 0.1% ascorbic acid, and harvested through filtermate A glass fiber filter (Wallac, Finland) presoaked in 0.5% polyethyleneimine (PEI) by microbeta filtermate-96 harvester (PerkinElmer) to terminate the reaction, and then washed with ice cold 50 mM Tris-HCl buffer solution (pH 7.4). The filter was then covered with MeltiLex, sealed in a sample bag, dried in an oven. The radioactivity retained in the filter was finally counted using MicroBeta Plus (Wallac).
as §2

| Compound | anti-immobility effect in FST, anti-depressant alone (mice [1]) | IC50 [2] | Immobility in forced swimming test (mice [3]; 25 mg/kg po) | Immobility in forced swimming test (mice [3]; 50 mg/kg po) | efficacy in forced swimming test, compound alone (mice [1]; 12.5 mg/kg or 25 mg/kg p.o.) | IC50 [4] | IC50 [5] |
| --- | --- | --- | --- | --- | --- | --- | --- |
| COc1ccc(C(CN(C)C)C2(O)CCCCC2)cc1 (stereo not drawn) [Effexor] | did not improve the anti-immobility effect | – | – | – | – | – | – |
| Cc1cccc(N2CCN(CCCCNc3ncnc4c3nc(-c3ccccc3)n4-c3ccccc3)CC2)c1C [Example 68, N-(4-(4-(2,3-dimethylphenyl)piperazin-1-yl)butyl)-8,9-diphenyl-9H-purine-6-amine] | – | 4.7 nM | 78.66 ± 11.33% | 72.11 ± 7.63% | do not demonstrate efficacy on animal model | 146 nM | 2.4 nM |
| CSc1ccc(-n2c(C)nc3c(NCCCN4CCN(c5cccc(C)c5C)CC4)ncnc32)cc1.Cl [Example 86, N-(3-(4-(2,3-dimethylphenyl)piperazin-1-yl)propyl)-8-methyl-9-(4-(methylthio)phenyl)-9H-purine-6-amine hydrochloride] | – | 376 nM | 66.53 ± 8.35% | – | – | 64 nM | 25 nM |
| CCc1nc2c(NCCN3CCN(c4cccc(C)c4C)CC3)ncnc2n1-c1ccc(SC)cc1.Cl [Example 87, N-(2-(4-(2,3-dimethylphenyl)piperazin-1-yl)ethyl)-8-ethyl-9-(4-(methylthio)phenyl)-9H-purine-6-amine hydrochloride] | – | 100 nM | 88.26 ± 6.05% | – | – | 136 nM | 9.3 nM |
| Cc1cccc(N2CCN(CCNc3ncnc4c3nc(-c3cccs3)n4-c3ccccc3)CC2)c1C.Cl [Example 91, N-(2-(4-(2,3-dimethylphenyl)piperazin-1-yl)ethyl)-9-phenyl-8-(thiophen-2-yl)-9H-purine-6-amine hydrochloride] | – | 141 nM | 89.19 ± 9.17% | – | – | 316 nM | 28 nM |
| Cc1cccc(N2CCN(CCCNc3ncnc4c3nc(-c3cccs3)n4-c3ccccc3)CC2)c1C.Cl [Example 92, N-(3-(4-(2,3-dimethylphenyl)piperazin-1-yl)propyl)-9-phenyl-8-(thiophen-2-yl)-9H-purine-6-amine hydrochloride] | – | 301 nM | 85.86 ± 8.90% | – | – | 38.9 nM | 17 nM |
| CNCCC(Oc1ccc(C(F)(F)F)cc1)c1ccccc1 (stereo not drawn) [Prozac] | did not improve the anti-immobility effect | – | – | – | – | – | – |
